Where two headings read alike, the source gives them in different places.
Legend:
SARS-CoV-2 M^pro = SARS-CoV-2 M^pro (Severe acute respiratory syndrome coronavirus 2, UniProt P0DTD1); assay: biochemical; format: biochemical; details: for IC50: 150 nM enzyme, 30 min pre-incubation at 37°C
Caspase 2 = target: T1, Caspase 2 (Homo sapiens, UniProt P42575); assay: Selectivity assay, Caspase 2 inhibitor drug screening kit; format: biochemical
T1 construct: purchased BioVision K152-100
Description: (§1) The biochemical activity against several common human cysteine proteases was assessed using Cathepsin B inhibitor screening kit (BioVision, K147-100), Cathepsin L inhibitor screening kit (BioVision, K161-100), and Caspase 2 inhibitor drug screening kit (BioVision, K152-100) following the manufacturer’s instructions.

Cathepsin B = target: T2, Cathepsin B (Homo sapiens, UniProt P07858); assay: Selectivity assay, Cathepsin B inhibitor screening kit; format: biochemical
T2 construct: purchased BioVision K147-100
Description: as §1

SARS-CoV-2 [1] = assay: Antiviral activity in human lung Calu-3 cells; format: cell-based; details: Severe acute respiratory syndrome coronavirus 2
[2] = test system: SARS-CoV-2 B.1.617.2/Delta; assay: Viral load reduction assay in VeroE6-TMPRSS2 cells, Delta; format: cell-based
SARS-CoV-2 B.1.1.7/Alpha = assay: Viral load reduction assay in VeroE6-TMPRSS2 cells, Alpha; format: cell-based
SARS-CoV-2 JN.1.1 = assay: Viral load reduction assay in VeroE6-TMPRSS2 cells, JN.1.1; format: cell-based
[3] = 300 mg/kg/day for three days, body weight recorded 14 days, no virus infection
SARS-CoV-2 [4] = assay: In vivo antiviral evaluation in the golden Syrian hamster model
SARS-CoV-2 EG.5.1 = assay: Viral load reduction assay in VeroE6-TMPRSS2 cells, EG.5.1; format: cell-based
[5] = test system: SARS-CoV-2 Omicron BA.5.2; assay: Viral load reduction assay in VeroE6-TMPRSS2 cells, BA.5.2; format: cell-based
[6] = test system: SARS-CoV-2 Alpha strain (B.1.1.7); format: in vivo, K18-hACE2 mice
Cathepsin L = target: T3, Cathepsin L (Homo sapiens, UniProt P07711); assay: Selectivity assay, Cathepsin L inhibitor screening kit; format: biochemical
T3 construct: purchased BioVision K161-100
T3 sequence (P07711 114-333): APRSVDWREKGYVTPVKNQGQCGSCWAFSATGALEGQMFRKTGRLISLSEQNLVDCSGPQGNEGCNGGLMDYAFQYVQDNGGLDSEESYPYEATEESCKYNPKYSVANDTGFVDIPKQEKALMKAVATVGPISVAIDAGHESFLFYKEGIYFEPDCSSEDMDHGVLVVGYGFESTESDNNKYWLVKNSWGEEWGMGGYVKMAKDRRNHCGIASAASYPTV
Description: as §1

WT SARS-CoV-2 HKU-001a = format: cell-based
SARS-CoV-2 XBB.1.5 = assay: Viral load reduction assay in VeroE6-TMPRSS2 cells, XBB.1.5; format: cell-based
VeroE6-TMPRSS2 cells = details: 48 h, CellTiter-Glo
Description: (B) Cytotoxicity of H135 in VeroE6-TMPRSS2 cells was measured by CellTiter-Glo assay for 48 h.

T1 sequence (P42575 348-452): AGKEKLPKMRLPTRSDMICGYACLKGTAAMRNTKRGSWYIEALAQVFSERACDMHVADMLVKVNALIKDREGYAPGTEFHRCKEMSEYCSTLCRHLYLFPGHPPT
T1 sequence (P42575 170-325): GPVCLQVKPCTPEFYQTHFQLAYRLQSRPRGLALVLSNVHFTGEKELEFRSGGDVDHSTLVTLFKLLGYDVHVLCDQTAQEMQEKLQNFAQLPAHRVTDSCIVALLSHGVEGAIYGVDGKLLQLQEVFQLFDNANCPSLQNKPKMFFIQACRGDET

CC(C)(C)OC(=O)N[C@H](C(=O)N[C@@H](Cc1ccccc1)C(=O)N[C@H](C#N)C[C@@H]1CCNC1=O)C(C)(C)C [H109]
IC50 (SARS-CoV-2 M^pro; mean ± SEM): 407 ± 5.6 nM

CC(C)(C)OC(=O)N[C@H](C(=O)N1C[C@H](OC(F)F)C[C@H]1C(=O)N[C@H](C#N)C[C@@H]1CCNC1=O)C(C)(C)C [H117]
IC50 (SARS-CoV-2 M^pro; mean ± SEM): 151 ± 5.2 nM

CC(C)(C)OC(=O)N[C@H](C(=O)N1C[C@H](OC(C)(C)C)C[C@H]1C(=O)N[C@H](C#N)C[C@@H]1CCNC1=O)C(C)(C)C [H118]
IC50 (SARS-CoV-2 M^pro; mean ± SEM): 310 ± 18.9 nM

CN(C(=O)[C@@H](NC(=O)OC(C)(C)C)C(C)(C)C)[C@@H](Cc1ccccc1)C(=O)N[C@H](C#N)C[C@@H]1CCNC1=O [H119]
IC50 (SARS-CoV-2 M^pro; mean ± SEM): 625 ± 10.5 nM
decrease in enzyme inhibitory activity (SARS-CoV-2 M^pro; relative to H109): 1.5 fold

CC(C)(C)OC(=O)N[C@H](C(=O)N1C[C@H](OC(F)(F)F)C[C@H]1C(=O)N[C@H](C#N)C[C@@H]1CCNC1=O)C(C)(C)C [H121]
IC50 (SARS-CoV-2 M^pro; mean ± SEM): 68.6 ± 2 nM

CC(C)(C)[C@H](NC(=O)C(F)(F)F)C(=O)N1C[C@H](OC(F)F)C[C@H]1C(=O)N[C@H](C#N)C[C@@H]1CCNC1=O [H122]
IC50 (SARS-CoV-2 M^pro; mean ± SEM): 106 ± 2.8 nM

CC(C)(C)[C@H](NC(=O)C1CCC(F)(F)CC1)C(=O)N1C[C@H](OC(F)F)C[C@H]1C(=O)N[C@H](C#N)C[C@@H]1CCNC1=O [H123]
IC50 (SARS-CoV-2 M^pro; mean ± SEM): 860.9 ± 5.1 nM

CC(C)(C)[C@H](NC(=O)C1(F)CC1)C(=O)N1C[C@H](OC(F)F)C[C@H]1C(=O)N[C@H](C#N)C[C@@H]1CCNC1=O [H124]
IC50 (SARS-CoV-2 M^pro; mean ± SEM): 102 ± 2 nM

CC(C)(C)[C@H](NC(=O)N1CC2(COC2)C1)C(=O)N1C[C@H](OC(F)F)C[C@H]1C(=O)N[C@H](C#N)C[C@@H]1CCNC1=O [H129]
IC50 (SARS-CoV-2 M^pro; mean ± SEM): 924 nM

CC(C)(C)OC(=O)N[C@H](C(=O)N1C[C@H](OC(F)F)C[C@H]1C(=O)N[C@H](C#N)C[C@@H]1CCNC1=O)C1CCCCC1 [H130]
IC50 (SARS-CoV-2 M^pro; mean ± SEM): 70.1 ± 2.8 nM

CC(C)(C)OC(=O)N[C@H](C(=O)N1C[C@H](OC(F)F)C[C@H]1C(=O)N[C@H](C#N)C[C@@H]1CCNC1=O)C1CCCC1 [H131]
IC50 (SARS-CoV-2 M^pro; mean ± SEM): 79.2 ± 2.1 nM

N#C[C@H](C[C@@H]1CCNC1=O)NC(=O)[C@@H]1C[C@@H](OC(F)(F)F)CN1C(=O)[C@@H](NC(=O)C1(F)CC1)C1CCCCC1 [H135]
IC50 (Caspase 2): > 100000 nM
IC50 (Cathepsin B): > 100000 nM
EC50 (SARS-CoV-2 [1]): 122 ± 13 nM
decrease of viral yield in cell culture supernatant [2]: more than 5 log10
decrease of viral yield in cell culture supernatant (SARS-CoV-2 B.1.1.7/Alpha): more than 5 log10
decrease of viral yield in cell culture supernatant (SARS-CoV-2 JN.1.1): more than 5 log10
toxicity as reflected by animal body weight change [3]: Negligible toxicity
IC50 (SARS-CoV-2 M^pro; mean ± SEM): 12.7 ± 0.1 nM
Ki (SARS-CoV-2 M^pro; read-out: inhibitory constant (Ki)): 156 nM
SARS-CoV-2 M^pro inhibitory potency enhanced (SARS-CoV-2 M^pro; relative to hit compound H109): 32 folds
decrease of viral RNA copies in lung (SARS-CoV-2 [4]; hamster, in vivo): ~ 0.7 log
decrease of viral RNA copies in trachea (SARS-CoV-2 [4]; hamster, in vivo): ~ 0.65 log
live virus titer in hamster lungs (SARS-CoV-2 [4]; hamster, in vivo): significantly reduced
decrease of viral yield in cell culture supernatant (SARS-CoV-2 EG.5.1): more than 5 log10
decrease of viral yield in cell culture supernatant [5]: more than 5 log10
body weight of infected mice ([6]; mouse, in vivo): less body weight loss
delayed death ([6]; mouse, in vivo): 0.6 day/mouse
fatality rate ([6]; mouse, in vivo): 100%
reduction of SARS-CoV-2 live virus titers in mouse lung ([6]; mouse, in vivo): more than 2 logs10
IC50 (Cathepsin L): > 100000 nM
decrease of viral yield in cell culture supernatant (WT SARS-CoV-2 HKU-001a): ~ 7 log10
decrease of viral yield in cell culture supernatant (SARS-CoV-2 XBB.1.5): more than 5 log10
dose up to which no cytotoxicity was found (VeroE6-TMPRSS2 cells): ≥ 400 µM

N#C[C@H](C[C@@H]1CCNC1=O)NC(=O)[C@@H]1C[C@@H](OC(F)F)CN1C(=O)[C@@H](NC(=O)C1(F)CC1)C1CCCCC1 [H136]
IC50 (SARS-CoV-2 M^pro; mean ± SEM): 43.4 ± 2 nM

CO[C@@H]1C[C@@H](C(=O)N[C@H](C#N)C[C@@H]2CCNC2=O)N(C(=O)[C@@H](NC(=O)OC(C)(C)C)C(C)(C)C)C1 [H138]
IC50 (SARS-CoV-2 M^pro): 2960 nM

CC(C)(C)OC(=O)N[C@H](C(=O)N1C[C@H](OCc2ccccc2)C[C@H]1C(=O)N[C@H](C#N)C[C@@H]1CCNC1=O)C(C)(C)C [H139]
IC50 (SARS-CoV-2 M^pro): 3410 nM

CC(C)(C)OC(=O)N[C@H](C(=O)N1C[C@H](Oc2ccccc2)C[C@H]1C(=O)N[C@H](C#N)C[C@@H]1CCNC1=O)C(C)(C)C [H140]
IC50 (SARS-CoV-2 M^pro): 6770 nM

CC(C)(C)OC(=O)N1C[C@H](OC(F)F)C[C@@H]1C(=O)N1C[C@H](OC(F)F)C[C@H]1C(=O)N[C@H](C#N)C[C@@H]1CCNC1=O [H141]
IC50 (SARS-CoV-2 M^pro): > 25000 nM

CC(C)(C)[C@H](NC(=O)C(F)(F)F)C(=O)N1C[C@H]2[C@@H]([C@H]1C(=O)N[C@H](C#N)C[C@@H]1CCNC1=O)C2(C)C [PF-07321332, nirmatrelvir, reference compound]
live virus titer in hamster lungs (SARS-CoV-2 [4]; […], H135 300 mg/kg IP QD, nirmatrelvir 300 mg/kg PO BID, three days, P < 0.001 vs DMSO): significantly reduced
body weight of infected mice ([6]; 150 mg/kg daily intraperitoneal, […]): body weight benefits
mice protected from death ([6]; mouse, in vivo): 40%

Reference: article PMC12724327, “Structure-guided discovery of a small molecule inhibitor of SARS-CoV-2 main protease with potent in vitro and in vivo antiviral activities” (Journal of Virology, 2025)
